Reference: patent US11208475B1, “Methods and compositions for treating inflammatory or autoimmune diseases or conditions using serotonin receptor activators” (Flagship Pioneering Innovations V, Inc., priority 2018, dated 2021)

These molecules were tested on macrophages (assay: IL-8 secretion by macrophages incubated with serotonin receptor agonists (bead-based immunoassay)). Conditions: human CD14+ monocyte-derived macrophages (M-CSF), compound 1 μM overnight, supernatant.
Format: cell-based
Protocol: CD14+ monocytes were isolated from human PBMCs using negative magnetic bead selection (Stemcell Technologies) on day 0. Cells were cultured with M-CSF to differentiate monocytes to macrophages. On day 6, cells were treated with LP44 (high affinity 5-HT7 agonist), BW 723C86 hydrochloride (5-HT2B agonist), MK 212 hydrochloride (5-HT2C agonist) (Sigma-Aldrich), at concentrations 1 μM and 10 μM overnight. Supernatant was collected and bead-based immunoassays (Biolegend) were performed to detect changes in cytokine secretion.
Across multiple human donors, secretion of the inflammatory cytokine, IL8, by macrophages was decreased after addition of each of the HTR2B, HTR2C, and HTR7 agonists, as show in Table 17 below.

| SMILES | Fold change of IL-8 (Normalized to Macs + LPS with no compound treatment) |
| --- | --- |
| CSc1ccccc1N1CCN(CCCCCC(=O)NC2CCCc3ccccc32)CC1 (stereo not drawn) [LP44] | 0.340 |
| Clc1cncc(N2CCNCC2)n1 [MK212] | 0.502 |
| CC(N)Cc1c[nH]c2ccc(OCc3cccs3)cc12.Cl (stereo not drawn) [BW723086] | 0.693 |

Same assay, conditions: human CD14+ monocyte-derived macrophages (M-CSF), compound 10 μM overnight, supernatant

| SMILES | Fold change of IL-8 (Normalized to Macs + LPS with no compound treatment) |
| --- | --- |
| CSc1ccccc1N1CCN(CCCCCC(=O)NC2CCCc3ccccc32)CC1 (stereo not drawn) [LP44] | 0.427 |
| Clc1cncc(N2CCNCC2)n1 [MK212] | 0.484 |
| CC(N)Cc1c[nH]c2ccc(OCc3cccs3)cc12.Cl (stereo not drawn) [BW723086] | 0.527 |
